Molecular target: TRKA (Homo sapiens (Human), UniProt P04629)
Assay: Isolated TRK enzyme assay (HTRF KinEASE-TK), PV3144 TrkA enzyme assay
Assay type: biochemical
Conditions: arithmetic mean where more than one reading
Outline: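 His-tagged TrkA cytoplasmic domain preactivated with ATP 20 min, then with compound 20 min at room temperature before 1 µM final biotin-TK substrate; HTRF 665/620 nm read.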

TRKA, sequence (P04629 441-796): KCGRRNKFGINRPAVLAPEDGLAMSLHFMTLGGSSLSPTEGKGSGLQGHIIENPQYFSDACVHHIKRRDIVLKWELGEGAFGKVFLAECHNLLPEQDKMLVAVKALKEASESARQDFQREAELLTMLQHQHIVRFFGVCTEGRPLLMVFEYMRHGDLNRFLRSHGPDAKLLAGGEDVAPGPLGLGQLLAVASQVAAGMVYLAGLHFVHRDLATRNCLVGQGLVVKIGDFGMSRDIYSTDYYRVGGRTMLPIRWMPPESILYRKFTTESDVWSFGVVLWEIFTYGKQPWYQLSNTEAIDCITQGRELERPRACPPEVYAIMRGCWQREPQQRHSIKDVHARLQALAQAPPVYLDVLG

SMILES | IC50
Cc1oc(C2CC2)nc1CC(=O)Nc1cncc(C(=O)c2cn(C(C)C)c3ccncc23)c1 [Example 19, 2-(2-cyclopropyl-5-methyl-1,3-oxazol-4-yl)-N-(5-{[1-(propan-2-yl)-1H-pyrrolo[3,2-c]pyridin-3-yl]carbonyl}pyridin-3-yl)acetamide] | 26.4 nM
CC(C)n1cc(C(=O)c2cncc(NC(=O)Cc3nc(C4CC4)oc3C3CC3)c2)c2cnccc21 [Example 20, 2-(2,5-dicyclopropyl-1,3-oxazol-4-yl)-N-(5-{[1-(propan-2-yl)-1H-pyrrolo[3,2-c]pyridin-3-yl]carbonyl}pyridin-3-yl)acetamide] | 31.7 nM
CC(C)n1cc(C(=O)c2cncc(NC(=O)Cn3ccc(C(F)(F)F)n3)c2)c2cnccc21 [Example 21, N-(5-{[1-(propan-2-yl)-1H-pyrrolo[3,2-c]pyridin-3-yl]carbonyl}pyridin-3-yl)-2-[3-(trifluoromethyl)-1H-pyrazol-1-yl]acetamide] | 27.1 nM
CC(C)n1cc(C(=O)c2cncc(NC(=O)Cc3ccc(Cl)cn3)c2)c2cnccc21 [Example 22, 2-(5-chloropyridin-2-yl)-N-(5-{[1-(propan-2-yl)-1H-pyrrolo[3,2-c]pyridin-3-yl]carbonyl}pyridin-3-yl)acetamide] | 9.64 nM
CC(C)n1cc(C(=O)c2cncc(NC(=O)Cc3ccc(F)cn3)c2)c2cnccc21 [Example 23, 2-(5-fluoropyridin-2-yl)-N-(5-{[1-(propan-2-yl)-1H-pyrrolo[3,2-c]pyridin-3-yl]carbonyl}pyridin-3-yl)acetamide] | 192 nM
Cc1nc(CC(=O)Nc2cncc(C(=O)c3cn(C(C)C)c4ccncc34)c2)c(C2CC2)o1 [Example 24, 2-(5-cyclopropyl-2-methyl-1,3-oxazol-4-yl)-N-(5-{[1-(propan-2-yl)-1H-pyrrolo[3,2-c]pyridin-3-yl]carbonyl}pyridin-3-yl)acetamide] | 124 nM
Cc1cnn(CC(=O)Nc2cncc(C(=O)c3cn(C(C)C)c4ccncc34)c2)c1 [Example 25, 2-(4-methyl-1H-pyrazol-1-yl)-N-(5-{[1-(propan-2-yl)-1H-pyrrolo[3,2-c]pyridin-3-yl]carbonyl}pyridin-3-yl)acetamide] | 21.4 nM
CC(C)n1cc(C(=O)c2cncc(NC(=O)Cn3ccc(C4CC4)n3)c2)c2cnccc21 [Example 26, 2-(3-cyclopropyl-1H-pyrazol-1-yl)-N-(5-{[1-(propan-2-yl)-1H-pyrrolo[3,2-c]pyridin-3-yl]carbonyl}pyridin-3-yl)acetamide] | 108 nM
CC(C)n1cc(C(=O)c2cc(NC(=O)Cn3ccc(C(F)(F)F)n3)ccn2)c2cnccc21 [Example 27, N-(2-{[1-(propan-2-yl)-1H-pyrrolo[3,2-c]pyridin-3-yl]carbonyl}pyridin-4-yl)-2[3-(trifluoromethyl)-1H-pyrazol-1-yl]acetamide] | 89.7 nM
Cc1cc(C(F)(F)F)nn1CC(=O)Nc1ccnc(C(=O)c2cn(C(C)C)c3ccncc23)c1 [Example 28, 2-[5-methyl-3-(trifluoromethyl)-1H-pyrazol-1-yl]-N-(2-{[1-(propan-2-yl)-1H-pyrrolo[3,2-c]pyridin-3-yl]carbonyl}pyridin-4-yl)acetamide] | 10.6 nM
CC(C)n1cc(C(=O)c2cc(NC(=O)Cn3ccc(C4CC4)n3)ccn2)c2cnccc21 [Example 29, 2-(3-cyclopropyl-1H-pyrazol-1-yl)-N-(2-{[1-(propan-2-yl)-1H-pyrrolo[3,2-c]pyridin-3-yl]carbonyl}pyridin-4-yl)acetamide] | 106 nM
CC(C)n1cc(C(=O)c2cc(NC(=O)Cn3cc(C(F)(F)F)cn3)ccn2)c2cnccc21 [Example 30, N-(2-{[1-(propan-2-yl)-1H-pyrrolo[3,2-c]pyridin-3-yl]carbonyl}pyridin-4-yl)-2[4-(trifluoromethyl)-1H-pyrazol-1-yl]acetamide] | 13.3 nM
CC(C)n1cc(C(=O)c2cncc(NC(=O)Cn3cc(C(F)(F)F)cn3)c2)c2cncc(F)c21 [Example 31, N-(5-{[7-fluoro-1-(propan-2-yl)-1H-pyrrolo[3,2-c]pyridin-3-yl]carbonyl}pyridin-3-yl)-2[4-(trifluoromethyl)-1H-pyrazol-1-yl]acetamide] | 9.66 nM
Cc1cc(C(F)(F)F)nn1CC(=O)Nc1cncc(C(=O)c2cn(C(C)C)c3c(F)cncc23)c1 [Example 32, N-(5-{[7-fluoro-1-(propan-2-yl)-1H-pyrrolo[3,2-c]pyridin-3-yl]carbonyl}pyridin-3-yl)-2-[5-methyl-3-(trifluoromethyl)-1H-pyrazol-1-yl]acetamide] | 11.4 nM
CC(C)(CO)n1cc(C(=O)c2cncc(NC(=O)Cc3ccc(C(F)(F)F)cc3)c2)c2cnccc21 [Example 33, N-(5-{[1-(1-hydroxy-2-methylpropan-2-yl)-1H-pyrrolo[3,2-c]pyridin-3-yl]carbonyl}pyridin-3-yl)-2-[4-(trifluoromethyl)phenyl]acetamide] | 3.11 nM
CC(C)n1cc(C(=O)c2cncc(NC(=O)Cc3ccc(C#N)c(C(F)(F)F)c3)c2)c2cnccc21 [Example 37, 2-[4-cyano-3-(trifluoromethyl)phenyl]-N-(5-{[1-(propan-2-yl)-1H-pyrrolo[3,2-c]pyridin-3-yl]carbonyl}pyridin-3-yl)acetamide] | 51.7 nM

SMILES | IC50
CC(C)n1cc(C(=O)c2cncc(NC(=O)Cn3cc(C(F)(F)F)nn3)c2)c2cnccc21 [Example 38, N-(5-{[1-(propan-2-yl)-1H-pyrrolo[3,2-c]pyridin-3-yl]carbonyl}pyridin-3-yl)-2[4-(trifluoromethyl)-1H-1,2,3-triazol-1-yl]acetamide] | 147 nM
COCc1nc(CC(=O)Nc2cncc(C(=O)c3cn(C(C)C)c4ccncc34)c2)c(C2CC2)o1 [Example 39, 2-[5-cyclopropyl-2-(methoxymethyl)-1,3-oxazol-4-yl]-N-(5-{[1-(propan-2-yl)-1H-pyrrolo[3,2-c]pyridin-3-yl]carbonyl}pyridin-3-yl)acetamide] | 181 nM
Cc1nonc1CC(=O)Nc1cncc(C(=O)c2cn(C(C)C)c3ccncc23)c1 [Example 40, 2-(4-methyl-1,2,5-oxadiazol-3-yl)-N-(5-{[1-(propan-2-yl)-1H-pyrrolo[3,2-c]pyridin-3-yl]carbonyl}pyridin-3-yl)acetamide] | 1730 nM
CC(C)n1cc(C(=O)c2cncc(NC(=O)Cc3cn(C)cn3)c2)c2cnccc21 [Example 41, 2-(1-methyl-1H-imidazol-4-yl)-N-(5-{[1-(propan-2-yl)-1H-pyrrolo[3,2-c]pyridin-3-yl]carbonyl}pyridin-3-yl)acetamide] | 3330 nM
CC(C)n1cc(C(=O)c2cncc(NC(=O)Cc3nc(C(C)(C)C)nn3C)c2)c2cnccc21 [Example 42, 2-(3-tert-butyl-1-methyl-1H-1,2,4-triazol-5-yl)-N-(5-{[1-(propan-2-yl)-1H-pyrrolo[3,2-c]pyridin-3-yl]carbonyl}pyridin-3-yl)acetamide] | 179 nM
CC(C)n1cc(C(=O)c2cncc(NC(=O)Cc3coc(C4CC4)n3)c2)c2cnccc21 [Example 43, 2-(2-cyclopropyl-1,3-oxazol-4-yl)-N-(5-{[1-(propan-2-yl)-1H-pyrrolo[3,2-c]pyridin-3-yl]carbonyl}pyridin-3-yl)acetamide] | 118 nM
COCCn1nc(C(C)(C)C)nc1CC(=O)Nc1cncc(C(=O)c2cn(C(C)C)c3ccncc23)c1 [Example 44, 2-[3-tert-butyl-1-(2-methoxyethyl)-1H-1,2,4-triazol-5-yl]-N-(5-{[1-(propan-2-yl)-1H-pyrrolo[3,2-c]pyridin-3-yl]carbonyl}pyridin-3-yl)acetamide] | 531 nM
CC(C)n1cc(C(=O)c2cncc(NC(=O)Cc3cncn3C)c2)c2cnccc21 [Example 45, 2-(1-methyl-1H-imidazol-5-yl)-N-(5-{[1-(propan-2-yl)-1H-pyrrolo[3,2-c]pyridin-3-yl]carbonyl}pyridin-3-yl)acetamide] | 1570 nM
CC(C)n1cc(C(=O)c2cncc(NC(=O)Cc3nccn3C)c2)c2cnccc21 [Example 46, 2-(1-methyl-1H-imidazol-2-yl)-N-(5-{[1-(propan-2-yl)-1H-pyrrolo[3,2-c]pyridin-3-yl]carbonyl}pyridin-3-yl)acetamide] | 3080 nM
COc1ncc(C(=O)c2cn(C(C)C)c3ccncc23)cc1NC(=O)Cc1ccc(C#N)cc1 [Example 47, 2-(4-cyanophenyl)-N-(2-methoxy-5-{[1-(propan-2-yl)-1H-pyrrolo[3,2-c]pyridin-3-yl]carbonyl}pyridin-3-yl)acetamide] | 187 nM
COc1ncc(C(=O)c2cn(C(C)C)c3ccncc23)cc1NC(=O)Cn1nc(C(F)(F)F)cc1C [Example 48, N-(2-methoxy-5-{[1-(propan-2-yl)-1H-pyrrolo[3,2-c]pyridin-3-yl]carbonyl}pyridin-3-yl)-2-[5-methyl-3-(trifluoromethyl)-1H-pyrazol-1-yl]acetamide] | 33.8 nM
CC(C)n1cc(C(=O)c2cncc(NC(=O)Cc3ccc(C#N)cc3)c2)c2cnccc21 [Example 49, 2-(4-cyanophenyl)-N-(5-{[1-(propan-2-yl)-1H-pyrrolo[3,2-c]pyridin-3-yl]carbonyl}pyridin-3-yl)acetamide] | 180 nM
CC(C)n1cc(CC(=O)Nc2cncc(C(=O)c3cn(C(C)C)c4ccncc34)c2)c(C(F)(F)F)n1 [Example 50, N-(5-{[1-(propan-2-yl)-1H-pyrrolo[3,2-c]pyridin-3-yl]carbonyl}pyridin-3-yl)-2-[1-(propan-2-yl)-3-(trifluoromethyl)-1H-pyrazol-4-yl]acetamide] | 133 nM
CC(C)n1cc(C(=O)c2cncc(NC(=O)Cn3cc(C4CC4)nn3)c2)c2cnccc21 [Example 51, 2-(4-cyclopropyl-1H-1,2,3-triazol-1-yl)-N-(5-{[1-(propan-2-yl)-1H-pyrrolo[3,2-c]pyridin-3-yl]carbonyl}pyridin-3-yl)acetamide] | 68.2 nM
CC(C)n1cc(C(=O)c2cc(NC(=O)Cn3cc(C4CC4)nn3)ccn2)c2cnccc21 [Example 52, 2-(4-cyclopropyl-1H-1,2,3-triazol-1-yl)-N-(2-{[1-(propan-2-yl)-1H-pyrrolo[3,2-c]pyridin-3-yl]carbonyl}pyridin-4-yl)acetamide] | 137 nM
